Measured values published in patent publication US20260166128A1, “HUMAN AMYLIN ANALOG, AND DERIVATIVE THEREOF AND USE THEREOF” (priority 2022, published 2026).
Numbered stars: 1 amine (or outer) side, 2 acyl side, 3 side chain; on linkers, the order of the positions; unused ones are H or OH. Bridge positions count the residues as written; N and C are the ends. Square brackets hold non-standard residues; d marks the D form. Side chains are listed from the residue outwards. Peptide text beside a SMILES is read from it. * marks the point of attachment. C20 diacid = O=C(O)CCCCCCCCCCCCCCCCCCC(=O)*; C18 diacid = O=C(O)CCCCCCCCCCCCCCCCC(=O)*; γGlu = O=C(O)[C@H](CCC(=O)[*:2])N[*:1]; Hyp = O=C(O)[C@@H]1C[C@@H](O)CN1; Dap = NC[C@H](N)C(=O)O; AEEA = NCCOCCOCC(=O)O

How the values were obtained:
[1] = target: T1, human amylin receptor (Homo sapiens, UniProt O60896+P30988); assay: Luciferase assay of amylin derivatives in amylin receptor/CRE-luc CHO cell line; assay type: cell-based; settings: CHO-K1/Ga15/AMY3 CRE-luc cells, 24 hours incubation, F12 medium containing 10% FBS; read-out: EC50
T1 construct: host or cells: CHO-K1/Ga15/AMY3 cells, further stably transfected with a CRE-luciferase plasmid
T1 sequence (P30988 25-474): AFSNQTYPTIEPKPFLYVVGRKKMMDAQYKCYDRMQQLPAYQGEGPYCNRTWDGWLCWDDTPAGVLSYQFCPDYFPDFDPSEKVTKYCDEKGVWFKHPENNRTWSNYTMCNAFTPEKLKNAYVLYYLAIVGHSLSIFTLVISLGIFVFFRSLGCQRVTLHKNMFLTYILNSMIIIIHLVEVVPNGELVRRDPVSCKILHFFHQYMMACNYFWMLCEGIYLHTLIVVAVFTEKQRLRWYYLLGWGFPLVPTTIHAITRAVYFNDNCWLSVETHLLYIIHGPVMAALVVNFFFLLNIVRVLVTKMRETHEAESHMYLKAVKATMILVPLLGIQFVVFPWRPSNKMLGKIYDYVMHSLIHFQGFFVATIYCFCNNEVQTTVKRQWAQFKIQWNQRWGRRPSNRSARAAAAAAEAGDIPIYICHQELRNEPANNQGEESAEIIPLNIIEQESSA
T1 sequence (O60896 24-148 partner): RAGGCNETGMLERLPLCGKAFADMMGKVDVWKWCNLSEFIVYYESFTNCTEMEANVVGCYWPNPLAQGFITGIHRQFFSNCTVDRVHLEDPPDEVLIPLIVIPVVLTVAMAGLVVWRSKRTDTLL
Procedure: The experiment was intended to detect the activity or efficacy of the amylin derivatives on a human amylin receptor in vitro by luciferase assay.
50 μL of growth medium (F12 medium containing 10% FBS) was added into each well of a white 96-well plate, and the stably transfected amylin/CRE-lue CHO cells were inoculated into the white 96-well plate at a density of about 20,000 cells/well for activity determination.

[2] = Freeze-thaw stability of derivatives (freeze-thaw yield by liquid chromatography); assay type: physicochemical; settings: for Dissolution property: appearance after dissolution at 0.2 mg/ml in 20 mM phosphate buffer solution (PB) (pH 7.0); for Freeze storage property: appearance after overnight storage at −20° C. and thawing to room temperature, 0.2 mg/ml in 20 mM PB (pH 7.0); for Freeze storage yield: concentration of polypeptide after freezing and thawing / concentration before, by liquid chromatography, −20° C. overnight
Outline: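 Freeze-thaw yield is the ratio of peptide concentration after versus before one overnight −20° C freeze and room-temperature thaw, both quantified by RP-HPLC of supernatant after centrifugation. Samples were 0.2 mg/ml freeze-dried derivative in 20 mM PB, pH 7.0.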

| Compound | EC50 [1] | Dissolution property [2] | Freeze storage property [2] | Freeze storage yield [2] |
| --- | --- | --- | --- | --- |
| CC[C@H](C)[C@H](NC(=O)[C@@H]1CCCN1C(=O)[C@H](CCCCNC(=O)CC[C@H](NC(=O)CCCCCCCCCCCCCCCCCCC(=O)O)C(=O)O)NC(=O)[C@H](CC(C)C)NC(=O)[C@H](CC(N)=O)NC(=O)[C@H](CC(N)=O)NC(=O)[C@H](CO)NC(=O)[C@H](CO)NC(=O)[C@H](Cc1c[nH]cn1)NC(=O)[C@H](CCCNC(=N)N)NC(=O)[C@H](CC(C)C)NC(=O)[C@H](Cc1ccccc1)NC(=O)[C@H](CN)NC(=O)[C@H](C)NC(=O)[C@H](CC(C)C)NC(=O)[C@H](CCCNC(=N)N)NC(=O)[C@H](CCC(N)=O)NC(=O)[C@@H](NC(=O)[C@H](C)NC(=O)[C@@H]1CSSC[C@H](NC(=O)[C@@H](N)CCCNC(=N)N)C(=O)N[C@@H](CC(N)=O)C(=O)N[C@@H]([C@@H](C)O)C(=O)N[C@@H](C)C(=O)N[C@@H]([C@@H](C)O)C(=O)N1)[C@@H](C)O)C(=O)N[C@@H](CC(C)C)C(=O)N1CCC[C@H]1C(=O)N1CCC[C@H]1C(=O)N[C@H](C(=O)N[C@@H](CC(N)=O)C(=O)N[C@H](C(=O)NCC(=O)N[C@@H](CO)C(=O)N[C@@H](CC(N)=O)C(=O)N[C@H](C(=O)N1CCC[C@H]1C(N)=O)[C@@H](C)O)C(C)C)[C@@H](C)O [PD045] (H-RCNTATCATQRLA[Dap]FLRHSSNNLK([γGlu-C20 diacid])PILPPTNVGSNTP-NH2; disulfide 2-7 (inferred); N-terminus assumed) | 0.364 nM | Clear | Clear | 95.59% |
| CC[C@H](C)[C@H](NC(=O)[C@@H]1CCCN1C(=O)[C@H](CCCCNC(=O)COCCOCCNC(=O)CC[C@H](NC(=O)CCCCCCCCCCCCCCCCC(=O)O)C(=O)O)NC(=O)[C@H](CC(C)C)NC(=O)[C@H](CC(N)=O)NC(=O)[C@H](CC(N)=O)NC(=O)[C@H](CO)NC(=O)[C@H](CO)NC(=O)[C@H](Cc1c[nH]cn1)NC(=O)[C@H](CCCNC(=N)N)NC(=O)[C@H](CC(C)C)NC(=O)[C@H](Cc1ccccc1)NC(=O)[C@H](CC(=O)O)NC(=O)[C@H](C)NC(=O)[C@H](CC(C)C)NC(=O)[C@H](CCCNC(=N)N)NC(=O)[C@H](CCC(N)=O)NC(=O)[C@@H](NC(=O)[C@H](C)NC(=O)[C@@H]1CSSC[C@H](NC(=O)[C@@H](N)CCCNC(=N)N)C(=O)N[C@@H](CC(N)=O)C(=O)N[C@@H]([C@@H](C)O)C(=O)N[C@@H](C)C(=O)N[C@@H]([C@@H](C)O)C(=O)N1)[C@@H](C)O)C(=O)N[C@@H](CC(C)C)C(=O)N1CCC[C@H]1C(=O)N1CCC[C@H]1C(=O)N[C@H](C(=O)N[C@@H](CC(N)=O)C(=O)N[C@H](C(=O)NCC(=O)N[C@@H](CO)C(=O)N[C@@H](CC(N)=O)C(=O)N[C@H](C(=O)N1C[C@H](O)C[C@H]1C(N)=O)[C@@H](C)O)C(C)C)[C@@H](C)O [PD108] (H-RCNTATCATQRLADFLRHSSNNLK([AEEA-γGlu-C18 diacid])PILPPTNVGSNT[Hyp]-NH2; disulfide 2-7 (inferred); N-terminus assumed) | 0.028 nM | Clear | Clear | 96.86% |
| CC[C@H](C)[C@H](NC(=O)[C@@H]1CCCN1C(=O)CNC(=O)[C@H](CC(C)C)NC(=O)[C@H](CC(N)=O)NC(=O)[C@H](CC(N)=O)NC(=O)[C@H](CO)NC(=O)[C@H](CO)NC(=O)[C@H](Cc1c[nH]cn1)NC(=O)[C@H](CCCNC(=N)N)NC(=O)[C@H](CC(C)C)NC(=O)[C@H](Cc1ccccc1)NC(=O)[C@H](CC(=O)O)NC(=O)[C@H](C)NC(=O)[C@H](CC(C)C)NC(=O)[C@H](CCCNC(=N)N)NC(=O)[C@H](CCC(N)=O)NC(=O)[C@@H](NC(=O)[C@H](C)NC(=O)[C@@H]1CSSC[C@H](NC(=O)[C@H](CCCCN)NC(=O)COCCOCCNC(=O)COCCOCCNC(=O)CC[C@H](NC(=O)CCCCCCCCCCCCCCCCCCC(=O)O)C(=O)O)C(=O)N[C@@H](CC(N)=O)C(=O)N[C@@H]([C@@H](C)O)C(=O)N[C@@H](C)C(=O)N[C@@H]([C@@H](C)O)C(=O)N1)[C@@H](C)O)C(=O)N[C@@H](CC(C)C)C(=O)N1CCC[C@H]1C(=O)N1CCC[C@H]1C(=O)N[C@H](C(=O)N[C@@H](CC(N)=O)C(=O)N[C@H](C(=O)NCC(=O)N[C@@H](CO)C(=O)N[C@@H](CC(N)=O)C(=O)N[C@H](C(=O)N1C[C@H](O)C[C@H]1C(N)=O)[C@@H](C)O)C(C)C)[C@@H](C)O [PD123] ({C20 diacid-γGlu-AEEA-AEEA}-KCNTATCATQRLADFLRHSSNNLGPILPPTNVGSNT[Hyp]-NH2; disulfide 2-7 (inferred)) | 0.068 nM | Clear | Clear | 102.11% |
| CC[C@H](C)[C@H](NC(=O)[C@@H]1CCCN1C(=O)CNC(=O)[C@H](CC(C)C)NC(=O)[C@H](CCCCNC(=O)COCCOCCNC(=O)COCCOCCNC(=O)CC[C@H](NC(=O)CCCCCCCCCCCCCCCCCCC(=O)O)C(=O)O)NC(=O)[C@H](CC(N)=O)NC(=O)[C@H](CO)NC(=O)[C@H](CO)NC(=O)[C@H](Cc1c[nH]cn1)NC(=O)[C@H](CCCNC(=N)N)NC(=O)[C@H](CC(C)C)NC(=O)[C@H](Cc1ccccc1)NC(=O)[C@H](CC(=O)O)NC(=O)[C@H](C)NC(=O)[C@H](CC(C)C)NC(=O)[C@H](CCCNC(=N)N)NC(=O)[C@H](CCC(N)=O)NC(=O)[C@@H](NC(=O)[C@H](C)NC(=O)[C@@H]1CSSC[C@H](NC(=O)[C@@H](N)CCCNC(=N)N)C(=O)N[C@@H](CC(N)=O)C(=O)N[C@@H]([C@@H](C)O)C(=O)N[C@@H](C)C(=O)N[C@@H]([C@@H](C)O)C(=O)N1)[C@@H](C)O)C(=O)N[C@@H](CC(C)C)C(=O)N1CCC[C@H]1C(=O)N1CCC[C@H]1C(=O)N[C@H](C(=O)N[C@@H](CC(N)=O)C(=O)N[C@H](C(=O)NCC(=O)N[C@@H](CO)C(=O)N[C@@H](CC(N)=O)C(=O)N[C@H](C(=O)N1C[C@H](O)C[C@H]1C(N)=O)[C@@H](C)O)C(C)C)[C@@H](C)O [PD087] (H-RCNTATCATQRLADFLRHSSNK([AEEA-AEEA-γGlu-C20 diacid])LGPILPPTNVGSNT[Hyp]-NH2; disulfide 2-7 (inferred); N-terminus assumed) | 0.032 nM | Clear | Clear | 102.65% |
| CC[C@H](C)[C@H](NC(=O)[C@@H]1CCCN1C(=O)CNC(=O)[C@H](CC(C)C)NC(=O)[C@H](CC(N)=O)NC(=O)[C@H](CC(N)=O)NC(=O)[C@H](CO)NC(=O)[C@H](CCCCNC(=O)COCCOCCNC(=O)CC[C@H](NC(=O)CCCCCCCCCCCCCCCCC(=O)O)C(=O)O)NC(=O)[C@H](Cc1c[nH]cn1)NC(=O)[C@H](CCCNC(=N)N)NC(=O)[C@H](CC(C)C)NC(=O)[C@H](Cc1ccccc1)NC(=O)[C@H](CC(=O)O)NC(=O)[C@H](C)NC(=O)[C@H](CC(C)C)NC(=O)[C@H](CCCNC(=N)N)NC(=O)[C@H](CCC(N)=O)NC(=O)[C@@H](NC(=O)[C@H](C)NC(=O)[C@@H]1CSSC[C@H](NC(=O)[C@@H](N)CCCNC(=N)N)C(=O)N[C@@H](CC(N)=O)C(=O)N[C@@H]([C@@H](C)O)C(=O)N[C@@H](C)C(=O)N[C@@H]([C@@H](C)O)C(=O)N1)[C@@H](C)O)C(=O)N[C@@H](CC(C)C)C(=O)N1CCC[C@H]1C(=O)N1CCC[C@H]1C(=O)N[C@H](C(=O)N[C@@H](CC(N)=O)C(=O)N[C@H](C(=O)NCC(=O)N[C@@H](CO)C(=O)N[C@@H](CC(N)=O)C(=O)N[C@H](C(=O)N1C[C@H](O)C[C@H]1C(N)=O)[C@@H](C)O)C(C)C)[C@@H](C)O [PD119] (H-RCNTATCATQRLADFLRHK([AEEA-γGlu-C18 diacid])SNNLGPILPPTNVGSNT[Hyp]-NH2; disulfide 2-7 (inferred); N-terminus assumed) | 0.024 nM | Clear | Clear | 103.04% |
| CC[C@H](C)[C@H](NC(=O)[C@@H]1CCCN1C(=O)[C@H](CCCCNC(=O)CC[C@H](NC(=O)CCCCCCCCCCCCCCCCCCC(=O)O)C(=O)O)NC(=O)[C@H](CC(C)C)NC(=O)[C@H](CC(N)=O)NC(=O)[C@H](CC(N)=O)NC(=O)[C@H](CO)NC(=O)[C@H](CO)NC(=O)[C@H](Cc1c[nH]cn1)NC(=O)[C@H](CCCNC(=N)N)NC(=O)[C@H](CC(C)C)NC(=O)[C@H](Cc1ccccc1)NC(=O)[C@H](CC(=O)O)NC(=O)[C@H](C)NC(=O)[C@H](CC(C)C)NC(=O)[C@H](CCCNC(=N)N)NC(=O)[C@H](CCC(N)=O)NC(=O)[C@@H](NC(=O)[C@H](C)NC(=O)[C@@H]1CSSC[C@H](N)C(=O)N[C@@H](CC(N)=O)C(=O)N[C@@H]([C@@H](C)O)C(=O)N[C@@H](C)C(=O)N[C@@H]([C@@H](C)O)C(=O)N1)[C@@H](C)O)C(=O)N[C@@H](CC(C)C)C(=O)N1CCC[C@H]1C(=O)N1CCC[C@H]1C(=O)N[C@H](C(=O)N[C@@H](CC(N)=O)C(=O)N[C@H](C(=O)NCC(=O)N[C@@H](CO)C(=O)N[C@@H](CC(N)=O)C(=O)N[C@H](C(=O)N1CCC[C@H]1C(N)=O)[C@@H](C)O)C(C)C)[C@@H](C)O [PD050] (H-CNTATCATQRLADFLRHSSNNLK([γGlu-C20 diacid])PILPPTNVGSNTP-NH2; disulfide 1-6 (inferred)) | 0.098 nM | Clear | Clear | 99.66% |
